Measurements as given in patent US20240368096A1 (Enanta Pharmaceuticals, Inc., priority 2022, published 2024).

system: HBV; assay: HBV infection in HepG2-NTCP cells (HBeAg AlphaLISA in supernatants); format: cell-based; details: Hepatitis B virus, 192 h; HBV infection of HepG2-NTCP cells; HBeAg in supernatants at day 8 post infection; read-out: Cellular EC50
How it was run: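 Readout was day-8 supernatant HBeAg by AlphaLISA, with EC50 set against DMSO controls and binned A<0.1 μM, B 0.1-1 μM, C>1 μM. Compounds were added 2 h before HBV (2000 GE/cell, 4% PEG, 0.5% DMSO) to HepG2-NTCP A3 cells; from day 1 medium held 2.5% DMSO.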

**Q.** `CN1[C@H](C2CCCCC2)CN(c2ccccc2)c2cc(N3CC4(CCCC4)C3)c(-c3ccc(F)c(C(=O)O)c3)cc2S1(=O)=O` [Example 533] was tested. Which EC50 did it give?
**A.** 100 to 1000 nM

**Q.** How did the EC50 turn out when `CN1[C@H](C2CCCCC2)CN(c2ccccc2)c2cc(OC3CC4(CC4)C3)c(-c3ccc(F)c(C(=O)O)c3)cc2S1(=O)=O` [Example 385] was run?
**A.** < 100 nM

**Q.** For `CC(C)C[C@@H]1CN(c2ccccc2)c2cc(Nc3ccccn3)c(-c3ccc(Cl)c(C(=O)O)c3)cc2S(=O)(=O)N1C` [Example 549], which EC50 is on record?
**A.** 100 to 1000 nM

**Q.** For `CCCC[C@@H]1CN(c2ccccc2)c2cc(-n3cncn3)c(-c3ccc(F)c(C(=O)O)c3)cc2S(=O)(=O)N1C` [Example 526], which EC50 is on record?
**A.** < 100 nM

**Q.** With `CN1[C@H](C2CCC2)CN(c2ccccc2)c2cc(Cl)c(-c3cccc(S(N)(=O)=O)c3)cc2S1(=O)=O` [Example 178] as the compound, how does the EC50 read?
**A.** > 1000 nM

**Q.** How did the EC50 turn out when `CN1[C@H](C2CCCCC2)CN(c2cccc(OC(F)(F)F)c2)c2cc(Cl)c(-c3ccc(F)c(C(=O)O)c3)cc2S1(=O)=O` [Example 293] was run?
**A.** < 100 nM

**Q.** Which EC50 does the source give for `CCCC[C@@H]1CN(c2ccccc2)c2cc(Oc3ccc(F)cc3)c(-c3ccc(F)c(C(=O)O)c3)cc2S(=O)(=O)N1C` [Example 421] here?
**A.** 100 to 1000 nM

**Q.** Which EC50 does the source give for `CN1[C@H](C2CCC2)CN(c2ccccc2)c2cc(Cl)c(-c3cccc(P(=O)(O)O)c3)cc2S1(=O)=O` [Example 234] here?
**A.** 100 to 1000 nM

**Q.** How did the EC50 turn out when `CCCC[C@@H]1CN(c2ccccc2)c2cc(Nc3ccccc3F)c(-c3cc(F)c(F)c(C(=O)O)c3)cc2S(=O)(=O)N1C` [Example 560, (R)-5-(3-butyl-7-((2-fluorophenyl)amino)-2-methyl-1,1-dioxido-5-phenyl-2,3,4,5-tetrahydrobenzo[f][1,2,5]thiadiazepin-8-yl)-2,3-difluorobenzoic acid] was run?
**A.** < 100 nM

**Q.** With `COCC(C)(C)COC(=O)Nc1cc(-c2cc3c(cc2Cl)N(c2ccccc2)C[C@@H](C2CCCCC2)N(C)S3(=O)=O)sc1C(=O)O` [Example 260] as the compound, how does the EC50 read?
**A.** 100 to 1000 nM

**Q.** `CN1[C@H](c2ccccc2)CN(c2ccccc2)c2cc(Cl)c(-c3ccc(F)c(C(=O)O)c3)cc2S1(=O)=O` [Example 54] was tested. Which EC50 did it give?
**A.** 100 to 1000 nM

**Q.** With `CC1CN(c2ccccc2)c2cc(F)c(-c3ccc(F)c(C(=O)O)c3)cc2S(=O)(=O)N1C` (stereo not drawn) [Example 1, 2-fluoro-5-(7-fluoro-2,3-dimethyl-1,1-dioxido-5-phenyl-2,3,4,5-tetrahydrobenzo[f][1,2,5]thiadiazepin-8-yl)benzoic acid] as the compound, how does the EC50 read?
**A.** > 1000 nM

**Q.** For `CN1[C@H](C2CCCCC2)CN(c2ccc(C(F)(F)F)cc2F)c2cc(Cl)c(-c3ccc(F)c(C(=O)O)c3)cc2S1(=O)=O` [Example 302], which EC50 is on record?
**A.** 100 to 1000 nM

**Q.** With `CC(C)C[C@@H]1CN(c2ccccc2)c2cc(Nc3ccncc3)c(-c3ccc(Cl)c(C(=O)O)c3)cc2S(=O)(=O)N1C` [Example 550] as the compound, how does the EC50 read?
**A.** > 1000 nM

**Q.** With `CC(C)C[C@@H]1CN(c2ccccc2)c2cc(OC(C)(C)c3ccccc3)c(-c3ccc(Cl)c(C(=O)O)c3)cc2S(=O)(=O)N1C` [Example 455] as the compound, how does the EC50 read?
**A.** 100 to 1000 nM

**Q.** How did the EC50 turn out when `COCCOc1cc2c(cc1-c1cc(NC(=O)OCC3CC(F)(F)C3)c(C(=O)O)s1)S(=O)(=O)N(C)[C@H](C1CCCCC1)CN2c1ccccc1` [Example 519] was run?
**A.** < 100 nM

**Q.** `CN1[C@H](CN2CCCC2=O)CN(c2ccccc2)c2cc(Cl)c(-c3ccc(F)c(C(=O)O)c3)cc2S1(=O)=O` [Example 115] was tested. Which EC50 did it give?
**A.** > 1000 nM

**Q.** `CN1[C@H](C2CCCCC2)CN(c2ccccc2)c2cc(Cl)c(-c3cc(C(=O)O)nn3C)cc2S1(=O)=O` [Example 133, (R)-5-(7-chloro-3-cyclohexyl-2-methyl-1,1-dioxido-5-phenyl-2,3,4,5-tetrahydrobenzo[f][1,2,5]thiadiazepin-8-yl)-1-methyl-1H-pyrazole-3-carboxylic acid] was tested. Which EC50 did it give?
**A.** 100 to 1000 nM

**Q.** With `CO[C@H](C)COC(=O)Nc1cc(-c2cc3c(cc2Cl)N(c2ccccc2)C[C@@H](C2CCCCC2)N(C)S3(=O)=O)sc1C(=O)O` [Example 259] as the compound, how does the EC50 read?
**A.** < 100 nM

**Q.** `CN1[C@H](C2CCCCC2)CN(c2cccc(OCC(F)(F)F)c2)c2cc(Cl)c(-c3ccc(F)c(C(=O)O)c3)cc2S1(=O)=O` [Example 313] was tested. Which EC50 did it give?
**A.** < 100 nM

**Q.** Which EC50 does the source give for `CN1[C@H](C2CCCCC2)CN(c2ccccc2)c2cc(O[C@H]3C[C@@H](F)C3)c(-c3ccc(F)c(C(=O)O)c3)cc2S1(=O)=O` [Example 380] here?
**A.** < 100 nM

**Q.** `C[C@H](OCc1ccccc1)[C@@H]1CN(c2ccccc2)c2cc(Cl)c(-c3ccc(F)c(C(=O)O)c3)cc2S(=O)(=O)N1C` [Example 90] was tested. Which EC50 did it give?
**A.** 100 to 1000 nM

**Q.** `CCCCCCCC[C@@H]1CN(c2ccccc2)c2cc(Cl)c(-c3ccc(F)c(C(=O)O)c3)cc2S(=O)(=O)N1C` [Example 82, (R)-5-(7-chloro-2-methyl-3-octyl-1,1-dioxido-5-phenyl-2,3,4,5-tetrahydrobenzo[f][1,2,5]thiadiazepin-8-yl)-2-fluorobenzoic acid] was tested. Which EC50 did it give?
**A.** > 1000 nM

**Q.** How did the EC50 turn out when `COc1cc2c(cc1-c1cccc(C(=O)O)c1)S(=O)(=O)N(C)[C@@H](Cc1ccc(Cl)cc1)CN2c1ccccc1` [Example 17] was run?
**A.** > 1000 nM

**Q.** `CC(C)CCCCOc1cc2c(cc1-c1ccc(F)c(C(=O)O)c1)S(=O)(=O)N(C)[C@H](C1CCCCC1)CN2c1ccccc1` [Example 361] was tested. Which EC50 did it give?
**A.** < 100 nM

**Q.** With `CC(C)[C@@H]1CN(c2ccccc2)c2cc(Cl)c(-c3ccc(Cl)c(C(=O)O)c3)cc2S(=O)(=O)N1C` [Example 62] as the compound, how does the EC50 read?
**A.** < 100 nM

**Q.** `CC(C)OCCOC(=O)Nc1cc(-c2cc3c(cc2Cl)N(c2ccccc2)C[C@@H](C2CCCCC2)N(C)S3(=O)=O)sc1C(=O)O` [Example 257] was tested. Which EC50 did it give?
**A.** < 100 nM

**Q.** `O=C(O)c1cc(-c2cc3c(cc2F)N(c2ccccc2)CC2CC4(CC4)CN2S3(=O)=O)ccc1F` (stereo not drawn) [Example 7] was tested. Which EC50 did it give?
**A.** 100 to 1000 nM

**Q.** Which EC50 does the source give for `CC(C)C[C@@H]1CN(c2ccccc2)c2cc(Oc3ccccc3Cl)c(-c3ccc(F)c(C(=O)O)c3)cc2S(=O)(=O)N1C` [Example 431] here?
**A.** < 100 nM

**Q.** With `CN1[C@H](C2CCCCC2)CN(c2ccnc(F)c2)c2cc(Cl)c(-c3ccc(F)c(C(=O)O)c3)cc2S1(=O)=O` [Example 284] as the compound, how does the EC50 read?
**A.** < 100 nM

**Q.** With `COCCC(=O)N1CCC(c2cc3c(cc2-c2ccc(F)c(C(=O)O)c2)S(=O)(=O)N(C)[C@H](C2CCCCC2)CN3c2ccccc2)CC1` [Example 600] as the compound, how does the EC50 read?
**A.** > 1000 nM

**Q.** Which EC50 does the source give for `CN1[C@H](CBr)CN(c2ccccc2)c2cc(Cl)c(-c3ccc(F)c(C(=O)O)c3)cc2S1(=O)=O` [Example 107, (S)-5-(3-(bromomethyl)-7-chloro-2-methyl-1,1-dioxido-5-phenyl-2,3,4,5-tetrahydrobenzo[f][1,2,5]thiadiazepin-8-yl)-2-fluorobenzoic acid] here?
**A.** > 1000 nM

**Q.** How did the EC50 turn out when `CN1[C@H](C2CCCCC2)CN(c2ccccc2)c2cc(Cl)c(-c3ccc(NC(=O)OCc4ccccc4)c(C(=O)O)c3)cc2S1(=O)=O` [Example 236] was run?
**A.** < 100 nM

**Q.** Which EC50 does the source give for `Cc1sc(-c2cc3c(cc2Cl)N(c2ccccc2)C[C@@H](C2CCCCC2)N(C)S3(=O)=O)cc1C(=O)O` [Example 122] here?
**A.** < 100 nM

**Q.** Which EC50 does the source give for `CC(C)C[C@@H]1CN(c2ccccc2)c2cc(OC3(C)CCCC3)c(-c3ccc(Cl)c(C(=O)O)c3)cc2S(=O)(=O)N1C` [Example 454] here?
**A.** < 100 nM

**Q.** With `CSc1cc2c(cc1-c1cccc(C(=O)O)c1)S(=O)(=O)N1C[C@@H](C(F)(F)F)C[C@H]1CN2c1ccccc1` [Example 24] as the compound, how does the EC50 read?
**A.** > 1000 nM

**Q.** How did the EC50 turn out when `CN1[C@H](C2CC(F)(F)C2)CN(c2ccccc2)c2cc(Cl)c(-c3ccc(Cl)c(C(=O)O)c3)cc2S1(=O)=O` [Example 32] was run?
**A.** 100 to 1000 nM

**Q.** How did the EC50 turn out when `CC(=O)N1CCC(c2cc3c(cc2-c2ccc(F)c(C(=O)O)c2)S(=O)(=O)N(C)[C@H](C2CCCCC2)CN3c2ccccc2)CC1` [Example 597] was run?
**A.** > 1000 nM

**Q.** `CN1[C@H](C2CCCCC2)CN(c2cc(F)cc(F)c2F)c2cc(Cl)c(-c3ccc(F)c(C(=O)O)c3)cc2S1(=O)=O` [Example 299] was tested. Which EC50 did it give?
**A.** 100 to 1000 nM

**Q.** How did the EC50 turn out when `CC(C)C[C@@H]1CN(c2ccccc2)c2cc(Cl)c(-c3cccc(P(=O)(O)O)c3)cc2S(=O)(=O)N1C` [Example 233] was run?
**A.** 100 to 1000 nM

**Q.** For `COCCOc1cc2c(cc1-c1cc(NC(=O)OCCOC(C)C)c(C(=O)O)s1)S(=O)(=O)N(C)[C@H](C1CCCCC1)CN2c1ccccc1` [Example 518, (R)-5-(3-cyclohexyl-7-(2-methoxyethoxy)-2-methyl-1,1-dioxido-5-phenyl-2,3,4,5-tetrahydrobenzo[f][1,2,5]thiadiazepin-8-yl)-3-(((2-isopropoxyethoxy)carbonyl)amino)thiophene-2-carboxylic acid], which EC50 is on record?
**A.** < 100 nM

**Q.** With `O=C(O)c1cccc(-c2cc3c(cc2F)N(c2ccccc2)C[C@@H]2C[C@H](C(F)(F)F)CN2S3(=O)=O)c1` [Example 11] as the compound, how does the EC50 read?
**A.** > 1000 nM

**Q.** Which EC50 does the source give for `CC(C)C[C@@H]1CN(c2ccccc2)c2cc(N(C)c3ccc(F)cc3)c(-c3ccc(Cl)c(C(=O)O)c3)cc2S(=O)(=O)N1C` [Example 554] here?
**A.** 100 to 1000 nM

**Q.** With `CC1CN(c2ccccc2)c2cc(C#N)c(-c3cccc(C(=O)O)c3)cc2S(=O)(=O)N1C` (stereo not drawn) [Example 12, 3-(7-cyano-2,3-dimethyl-1,1-dioxido-5-phenyl-2,3,4,5-tetrahydrobenzo[f][1,2,5]thiadiazepin-8-yl)benzoic acid] as the compound, how does the EC50 read?
**A.** > 1000 nM

**Q.** Which EC50 does the source give for `CN1[C@H](C2CCCCC2)CN(c2cccc(Cl)c2)c2cc(Cl)c(-c3ccc(F)c(C(=O)O)c3)cc2S1(=O)=O` [Example 296] here?
**A.** < 100 nM

**Q.** Which EC50 does the source give for `CC(C)CC1CN(C2CCCC2)c2cc(Cl)c(-c3cccc(C(=O)O)c3)cc2S(=O)(=O)N1C` (stereo not drawn) [Example 326, 3-(7-chloro-5-cyclopentyl-3-isobutyl-2-methyl-1,1-dioxido-2,3,4,5-tetrahydrobenzo[f][1,2,5]thiadiazepin-8-yl)benzoic acid] here?
**A.** 100 to 1000 nM

**Q.** How did the EC50 turn out when `CC(C)C[C@@H]1CN(c2ccccc2)c2cc(OCc3cncs3)c(-c3ccc(F)c(C(=O)O)c3)cc2S(=O)(=O)N1C` [Example 458] was run?
**A.** < 100 nM

**Q.** `CN1[C@H](CC2CCCCC2)CN(c2ccccc2)c2cc(Cl)c(-c3ccc(F)c(C(=O)O)c3)cc2S1(=O)=O` [Example 52] was tested. Which EC50 did it give?
**A.** 100 to 1000 nM

**Q.** Which EC50 does the source give for `CC(C)Oc1cc2c(cc1-c1ccc(F)c(C(=O)O)c1)S(=O)(=O)N(C)[C@H](C1CCCCC1)CN2c1ccccc1` [Example 357] here?
**A.** < 100 nM

**Q.** Which EC50 does the source give for `CN1[C@H](C2CCCCC2)CN(c2ccccc2)c2cc(Oc3cc(F)cc(F)c3)c(-c3ccc(F)c(C(=O)O)c3)cc2S1(=O)=O` [Example 405] here?
**A.** < 100 nM

**Q.** Which EC50 does the source give for `Cc1cc(-c2cc3c(cc2Cl)N(c2ccccc2)C[C@@H](C2CCCCC2)N(C)S3(=O)=O)oc1C(=O)O` [Example 124] here?
**A.** < 100 nM
